From patent publication US11759455B2, “Substituted 1H-imidazo[4,5-b]pyridin-2(3H)-ones and their use as GLUN2B receptor modulators” (JANSSEN PHARMACEUTICA NV, priority 2016, dated 2023)
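Further: stable Tet-On inducible cell line, Ca2+ influx triggered by glutamate at about EC40 plus 10 µM glycine, fluorescent dye read-out over 5 min, normalized to control wells.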

Each compound was assayed against T1, human GluN1/GluN2B NMDA receptors (Homo sapiens, UniProt Q13224) (assay: Cell-based calcium flux (FLIPR) assay on cloned human NR1/NR2B ion channels expressed in mammalian cells (standard and HTS buffer variants)). Conditions: standard assay buffer (0.5 mM MgCl2 dye loading; 137 mM NaCl, 4 mM KCl assay buffer), human GluN1/GluN2B cells, read-out: NR2B IC50 (μM) standard assay.
T1 construct: expressed in transfected cells
T1 sequence (Q13224 27-1484, other chains not shown): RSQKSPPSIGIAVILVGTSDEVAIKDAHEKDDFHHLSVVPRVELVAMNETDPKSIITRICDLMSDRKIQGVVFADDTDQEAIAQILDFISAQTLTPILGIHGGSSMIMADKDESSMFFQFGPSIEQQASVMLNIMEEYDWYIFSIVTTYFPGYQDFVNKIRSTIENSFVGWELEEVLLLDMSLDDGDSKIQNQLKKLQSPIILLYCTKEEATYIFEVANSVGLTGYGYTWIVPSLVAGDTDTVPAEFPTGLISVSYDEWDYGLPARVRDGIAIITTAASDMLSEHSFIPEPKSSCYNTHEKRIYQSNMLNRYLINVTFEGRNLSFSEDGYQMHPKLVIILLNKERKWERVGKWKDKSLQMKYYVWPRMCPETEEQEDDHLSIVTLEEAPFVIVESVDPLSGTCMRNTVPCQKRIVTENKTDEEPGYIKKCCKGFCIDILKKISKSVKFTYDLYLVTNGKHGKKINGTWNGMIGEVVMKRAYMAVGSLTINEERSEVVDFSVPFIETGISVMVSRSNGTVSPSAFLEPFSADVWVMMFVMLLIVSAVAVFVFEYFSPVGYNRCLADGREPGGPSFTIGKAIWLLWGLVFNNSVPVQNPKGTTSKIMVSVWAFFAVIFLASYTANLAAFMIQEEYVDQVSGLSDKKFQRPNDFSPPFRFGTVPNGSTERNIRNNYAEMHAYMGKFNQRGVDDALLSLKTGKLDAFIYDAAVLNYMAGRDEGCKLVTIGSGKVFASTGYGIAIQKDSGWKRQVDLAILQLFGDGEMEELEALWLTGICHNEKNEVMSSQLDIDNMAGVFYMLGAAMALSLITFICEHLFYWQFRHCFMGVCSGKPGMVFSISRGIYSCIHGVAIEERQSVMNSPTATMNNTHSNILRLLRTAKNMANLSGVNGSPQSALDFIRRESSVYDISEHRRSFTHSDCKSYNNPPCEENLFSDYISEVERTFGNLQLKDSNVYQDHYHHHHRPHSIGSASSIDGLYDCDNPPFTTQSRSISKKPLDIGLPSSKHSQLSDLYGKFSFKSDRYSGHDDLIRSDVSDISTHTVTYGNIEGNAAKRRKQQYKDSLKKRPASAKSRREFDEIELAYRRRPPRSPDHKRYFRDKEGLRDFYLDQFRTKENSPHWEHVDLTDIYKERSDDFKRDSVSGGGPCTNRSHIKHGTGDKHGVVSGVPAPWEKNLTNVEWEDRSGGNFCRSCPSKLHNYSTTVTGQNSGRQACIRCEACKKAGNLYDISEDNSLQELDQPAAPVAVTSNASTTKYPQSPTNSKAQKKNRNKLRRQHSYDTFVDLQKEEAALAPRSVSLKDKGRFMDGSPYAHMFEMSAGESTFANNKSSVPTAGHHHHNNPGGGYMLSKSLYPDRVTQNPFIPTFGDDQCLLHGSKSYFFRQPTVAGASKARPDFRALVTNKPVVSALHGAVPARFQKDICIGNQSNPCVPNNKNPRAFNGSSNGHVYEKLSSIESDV
For `Cc1cc(-c2cnc3c(c2)n(Cc2cncnc2)c(=O)n3C)ccc1F` [Example 48, 6-(4-Fluoro-3-methyl-phenyl)-3-methyl-1-(pyrimidin-5-ylmethyl)imidazo[4,5-b]pyridin-2-one], the IC50 was 0.072 µM. `Cc1cc(-c2cnc3c(c2)n(Cc2ncccn2)c(=O)n3C)ccc1F` [Example 49, 6-(4-Fluoro-3-methyl-phenyl)-3-methyl-1-(pyrimidin-2-ylmethyl)imidazo[4,5-b]pyridin-2-one] was tested, and the IC50 was 0.486 µM. `Cc1cc(-c2cnc3c(c2)n(Cc2cccnn2)c(=O)n3C)ccc1F` [Example 50, 6-(4-Fluoro-3-methyl-phenyl)-3-methyl-1-(pyridazin-3-ylmethyl)imidazo[4,5-b]pyridin-2-one] showed an IC50 of 0.009 µM. Work on `Cn1c(=O)n(Cc2cccnc2)c2cc(-c3cccc(F)c3)cnc21` [Example 51, 6-(3-Fluorophenyl)-3-methyl-1-(3-pyridylmethyl)imidazo[4,5-b]pyridin-2-one] yielded an IC50 of 22.6 µM. `Cn1c(=O)n(Cc2ccncc2)c2cc(-c3cccc(F)c3)cnc21` [Example 52, 6-(3-Fluorophenyl)-3-methyl-1-(4-pyridylmethyl)imidazo[4,5-1D]pyridin-2-one] was tested, and the IC50 was 3.33 µM. For `Cn1c(=O)n(Cc2ccccn2)c2cc(-c3cccc(F)c3)cnc21` [Example 53, 6-(3-Fluorophenyl)-3-methyl-1-(2-pyridylmethyl)imidazo[4,5-b]pyridin-2-one], the IC50 was 1.4 µM. `Cn1c(=O)n(Cc2cncnc2)c2cc(-c3cccc(F)c3)cnc21` [Example 54, 6-(3-Fluorophenyl)-3-methyl-1-(pyrimidin-5-ylmethyl)imidazo[4,5-b]pyridin-2-one] gave an IC50 of 0.61 µM. Work on `Cn1c(=O)n(Cc2cnccn2)c2cc(-c3cccc(F)c3)cnc21` [Example 55, 6-(3-Fluorophenyl)-3-methyl-1-(pyrazin-2-ylmethyl)imidazo[4,5-b]pyridin-2-one] yielded an IC50 of 3.03 µM. With `Cn1c(=O)n(Cc2ncccn2)c2cc(-c3cccc(F)c3)cnc21` [Example 56, 6-(3-Fluorophenyl)-3-methyl-1-(pyrimidin-2-ylmethyl)imidazo[4,5-b]pyridin-2-one] the IC50 was 8.71 µM. `Cn1c(=O)n(Cc2cccnn2)c2cc(-c3cccc(F)c3)cnc21` [Example 57, 6-(3-Fluorophenyl)-3-methyl-1-(pyridazin-3-ylmethyl)imidazo[4,5-b]pyridin-2-one] showed an IC50 of 0.2 µM. `Cn1c(=O)n(Cc2ccncc2)c2cc(-c3ccc(F)c(F)c3)cnc21` [Example 58, 6-(3,4-Difluorophenyl)-3-methyl-1-(4-pyridylmethyl)imidazo[4,5-b]pyridin-2-one] showed an IC50 of 1.9 µM. `Cn1c(=O)n(Cc2cccnc2)c2cc(-c3ccc(F)c(F)c3)cnc21` [Example 59, 6-(3,4-Difluorophenyl)-3-methyl-1-(3-pyridylmethyl)imidazo[4,5-b]pyridin-2-one] showed an IC50 of 0.246 µM. Work on `Cn1c(=O)n(Cc2cncnc2)c2cc(-c3ccc(F)c(F)c3)cnc21` [Example 60, 6-(3,4-Difluorophenyl)-3-methyl-1-(pyrimidin-5-ylmethyl)imidazo[4,5-b]pyridin-2-one] yielded an IC50 of 0.45 µM. `Cn1c(=O)n(Cc2cccnn2)c2cc(-c3ccc(F)c(F)c3)cnc21` [Example 61, 6-(3,4-Difluorophenyl)-3-methyl-1-(pyridazin-3-ylmethyl)imidazo[4,5-b]pyridin-2-one] was tested, and the IC50 was 0.223 µM. Work on `Cn1c(=O)n(Cc2ccccn2)c2cc(-c3ccc(F)c(F)c3)cnc21` [Example 62, 6-(3,4-difluorophenyl)-3-methyl-1-(2-pyridylmethyl)imidazo[4,5-b]pyridin-2-one] yielded an IC50 of 2 µM. Compound `Cn1c(=O)n(Cc2cnccn2)c2cc(-c3ccc(F)c(F)c3)cnc21` [Example 63, 6-(3,4-Difluorophenyl)-3-methyl-1-(pyrazin-2-ylmethyl)imidazo[4,5-b]pyridin-2-one] has an IC50 of 2.3 µM. Work on `Cn1c(=O)n(Cc2ncccn2)c2cc(-c3ccc(F)c(F)c3)cnc21` [Example 64, 6-(3,4-Difluorophenyl)-3-methyl-1-(pyrimidin-2-ylmethyl)imidazo[4,5-b]pyridin-2-one] yielded an IC50 of 3.59 µM. For `Cc1c(F)ccc(-c2cnc3c(c2)n(Cc2ncccn2)c(=O)n3C)c1F` [Example 65, 6-(2,4-Difluoro-3-methyl-phenyl)-3-methyl-1-(pyrimidin-2-ylmethyl)imidazo[4,5-b]pyridin-2-one], the IC50 was 0.81 µM. Work on `Cc1c(F)ccc(-c2cnc3c(c2)n(Cc2ccncc2)c(=O)n3C)c1F` [Example 66, 6-(2,4-Difluoro-3-methyl-phenyl)-3-methyl-1-(4-pyridylmethyl)imidazo[4,5-b]pyridin-2-one] yielded an IC50 of 0.725 µM. `Cc1c(F)ccc(-c2cnc3c(c2)n(Cc2cccnn2)c(=O)n3C)c1F` [Example 67, 6-(2,4-Difluoro-3-methyl-phenyl)-3-methyl-1-(pyridazin-3-ylmethyl)imidazo[4,5-b]pyridin-2-one] showed an IC50 of 0.009 µM. `Cc1c(F)ccc(-c2cnc3c(c2)n(Cc2ccccn2)c(=O)n3C)c1F` [Example 68, 6-(2,4-Difluoro-3-methyl-phenyl)-3-methyl-1-(2-pyridylmethyl)imidazo[4,5-b]pyridin-2-one] showed an IC50 of 0.31 µM. In the case of `Cc1c(F)ccc(-c2cnc3c(c2)n(Cc2cncnc2)c(=O)n3C)c1F` [Example 69], the IC50 is reported as 0.033 µM. `Cn1c(=O)n(Cc2ccncn2)c2cc(-c3ccc(F)c(F)c3)cnc21` [Example 70, 6-(3,4-Difluorophenyl)-3-methyl-1-(pyrimidin-4-ylmethyl)imidazo[4,5-b]pyridin-2-one] gave an IC50 of 2.21 µM. In the case of `Cc1cc(-c2cnc3c(c2)n(Cc2ccncn2)c(=O)n3C)ccc1F` [Example 71, 6-(4-Fluoro-3-methyl-phenyl)-3-methyl-1-(pyrimidin-4-ylmethyl)imidazo[4,5-b]pyridin-2-one], the IC50 is reported as 0.278 µM. For `Cc1c(F)ccc(-c2cnc3c(c2)n(Cc2ccncn2)c(=O)n3C)c1F` [Example 72, 6-(2,4-Difluoro-3-methyl-phenyl)-3-methyl-1-(pyrimidin-4-ylmethyl)imidazo[4,5-b]pyridin-2-one], the IC50 was 0.482 µM. `Cc1nnc(Cn2c(=O)n(C)c3ncc(-c4ccc(F)c(F)c4)cc32)o1` [Example 73, 6-(3,4-Difluorophenyl)-3-methyl-1-[(5-methyl-1,3,4-oxadiazol-2-yl)methyl]imidazo[4,5-b]pyridin-2-one] showed an IC50 of 0.314 µM. Work on `Cc1cc(Cn2c(=O)n(C)c3ncc(-c4cccc(C(F)(F)F)c4)cc32)no1` [Example 74, 3-Methyl-1-[(5-methylisoxazol-3-yl)methyl]-6-[3-(trifluoromethyl)phenyl]imidazo[4,5-b]pyridin-2-one] yielded an IC50 of 0.057 µM. `Cc1nnc(Cn2c(=O)n(C)c3ncc(-c4cccc(C(F)(F)F)c4)cc32)o1` [Example 75, 3-Methyl-1-[(5-methyl-1,3,4-oxadiazol-2-yl)methyl]-6-[3-(trifluoromethyl)phenyl]imidazo[4,5-b]pyridin-2-one] gave an IC50 of 0.093 µM. `Cc1noc(Cn2c(=O)n(C)c3ncc(-c4cccc(C(F)(F)F)c4)cc32)n1` [Example 76, 3-Methyl-1-[(3-methyl-1,2,4-oxadiazol-5-yl)methyl]-6-[3-(trifluoromethyl)phenyl]imidazo[4,5-b]pyridin-2-one] showed an IC50 of 0.218 µM. For `Cc1noc(Cn2c(=O)n(C)c3ncc(-c4ccc(F)c(F)c4)cc32)n1` [Example 77, 6-(3,4-Difluorophenyl)-3-methyl-1-[(3-methyl-1,2,4-oxadiazol-5-yl)methyl]imidazo[4,5-b]pyridin-2-one], the IC50 was 0.457 µM. `Cc1ccc(-c2cnc3c(c2)n(CC(=O)N(C)C)c(=O)n3C)s1` [Example 78, N,N-Dimethyl-2-[3-methyl-6-(5-methyl-2-thienyl)-2-oxo-imidazo[4,5-b]pyridin-1-yl]acetamide] gave an IC50 of 0.043 µM. With `CCc1ccc(-c2cnc3c(c2)n(CC(=O)N(C)C)c(=O)n3C)s1` [Example 79, 2-[6-(5-Ethyl-2-thienyl)-3-methyl-2-oxo-imidazo[4,5-b]pyridin-1-yl]-N,N-dimethyl-acetamide] the IC50 was 0.031 µM. In the case of `Cc1csc(-c2cnc3c(c2)n(CC(=O)N(C)C)c(=O)n3C)c1` [Example 80, N,N-Dimethyl-2-[3-methyl-6-(4-methyl-2-thienyl)-2-oxo-imidazo[4,5-b]pyridin-1-yl]acetamide], the IC50 is reported as 0.03 µM. `Cn1c(=O)n(CC(=O)N2CCC2)c2cc(-c3ccc(F)s3)cnc21` [Example 81, 1-[2-(Azetidin-1-yl)-2-oxo-ethyl]-6-(5-fluoro-2-thienyl)-3-methyl-imidazo[4,5-b]pyridin-2-one] was tested, and the IC50 was 0.031 µM. `CN(C)C(=O)Cn1c(=O)n(C)c2ncc(-c3ccc(F)s3)cc21` [Example 82, 2-[6-(5-Fluoro-2-thienyl)-3-methyl-2-oxo-imidazo[4,5-b]pyridin-1-yl]-N,N-dimethyl-acetamide] was tested, and the IC50 was 0.154 µM. `Cn1c(=O)n(CC(=O)N2CC(F)C2)c2cc(-c3ccc(F)s3)cnc21` [Example 83, 1-[2-(3-Fluoroazetidin-1-yl)-2-oxo-ethyl]-6-(5-fluoro-2-thienyl)-3-methyl-imidazo[4,5-b]pyridin-2-one] gave an IC50 of 0.033 µM. For `Cn1c(=O)n(Cc2cccnn2)c2cc(-c3ccc(C(F)(F)F)s3)cnc21` [Example 84, 3-Methyl-1-(pyridazin-3-ylmethyl)-6-[5-(trifluoromethyl)-2-thienyl]imidazo[4,5-b]pyridin-2-one], the IC50 was 0.03 µM. For `Cn1c(=O)n(Cc2cccnn2)c2cc(-c3ccc(F)s3)cnc21` [Example 85, 6-(5-Fluoro-2-thienyl)-3-methyl-1-(pyridazin-3-ylmethyl)imidazo[4,5-b]pyridin-2-one], the IC50 was 0.157 µM. Work on `Cc1csc(-c2cnc3c(c2)n(CC(=O)N2CC(F)C2)c(=O)n3C)n1` [Example 86, 1-[2-(3-Fluoroazetidin-1-yl)-2-oxo-ethyl]-3-methyl-6-(4-methylthiazol-2-yl)imidazo[4,5-b]pyridin-2-one] yielded an IC50 of 1.6 µM. For `CCc1ccc(-c2cnc3c(c2)n(CC(=O)N2CCC2)c(=O)n3C)s1` [Example 87, 1-[2-(Azetidin-1-yl)-2-oxo-ethyl]-6-(5-ethyl-2-thienyl)-3-methyl-imidazo[4,5-b]pyridin-2-one], the IC50 was 0.021 µM. With `CCc1ccc(-c2cnc3c(c2)n(CC(=O)N2CC(F)C2)c(=O)n3C)s1` [Example 88, 6-(5-Ethyl-2-thienyl)-1-[2-(3-fluoroazetidin-1-yl)-2-oxo-ethyl]-3-methyl-imidazo[4,5-b]pyridin-2-one] the IC50 was 0.02 µM.
